In US11787762B2, “Tetralin and tetrahydroquinoline compounds as inhibitors of HIF-2alpha” (ARCUS BIOSCIENCES, INC., priority 2020, dated 2023):

Legend:
[1] = biological target: T1, HIF-2α (Homo sapiens, UniProt Q99814); experiment: HIF-2α luciferase reporter assay in HIF-Luc-786-O cells; format: cell-based
T1 construct: host or cells: 786-O cells stably transduced with Cignal Lenti HIF Luc Reporter (only the reporter was introduced, not HIF-2α)
How it was run: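 Luminescence (ONE-Glo) read after 20 h compound incubation, top concentration 50 uM, 1% DMSO, 20,000 HIF-Luc-786-O cells per well. Activity scaled between DMSO maximum and no-cell baseline; four-parameter dose-response fits yielded IC50.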

[2] = biological target: T2, Histidine tagged HIF-2α protein containing PAS-B domain (240-350) (Homo sapiens, UniProt Q99814); experiment: HIF-2α Scintillation Proximity Assay (SPA) binding assay; conditions: 50 nM HIF-2α protein, 25 nM 3H-tracer
T2 construct: HIF-2α protein containing PAS-B domain (240-350); made in house
How it was run: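 His-tagged HIF-2α PAS-B (240-350), 50 nM final, preincubated with compound 1 h at room temperature in 25 mM Tris-HCl pH 7.4, 150 mM NaCl, 0.15% BSA, 0.001% Tween 20, 2% DMSO. Copper-chelate SPA beads (3 ug/well, 45 min) and 25 nM tritiated N-(3-chlorophenyl)-4-nitro-2,1,3-benzoxadiazol-5-amine tracer followed; IC50 from four-parameter fits.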

T2 sequence (Q99814 240-350): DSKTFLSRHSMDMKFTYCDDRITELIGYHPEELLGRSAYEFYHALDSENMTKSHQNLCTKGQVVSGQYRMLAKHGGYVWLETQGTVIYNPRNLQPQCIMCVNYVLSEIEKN
T1 sequence (Q99814 whole entry): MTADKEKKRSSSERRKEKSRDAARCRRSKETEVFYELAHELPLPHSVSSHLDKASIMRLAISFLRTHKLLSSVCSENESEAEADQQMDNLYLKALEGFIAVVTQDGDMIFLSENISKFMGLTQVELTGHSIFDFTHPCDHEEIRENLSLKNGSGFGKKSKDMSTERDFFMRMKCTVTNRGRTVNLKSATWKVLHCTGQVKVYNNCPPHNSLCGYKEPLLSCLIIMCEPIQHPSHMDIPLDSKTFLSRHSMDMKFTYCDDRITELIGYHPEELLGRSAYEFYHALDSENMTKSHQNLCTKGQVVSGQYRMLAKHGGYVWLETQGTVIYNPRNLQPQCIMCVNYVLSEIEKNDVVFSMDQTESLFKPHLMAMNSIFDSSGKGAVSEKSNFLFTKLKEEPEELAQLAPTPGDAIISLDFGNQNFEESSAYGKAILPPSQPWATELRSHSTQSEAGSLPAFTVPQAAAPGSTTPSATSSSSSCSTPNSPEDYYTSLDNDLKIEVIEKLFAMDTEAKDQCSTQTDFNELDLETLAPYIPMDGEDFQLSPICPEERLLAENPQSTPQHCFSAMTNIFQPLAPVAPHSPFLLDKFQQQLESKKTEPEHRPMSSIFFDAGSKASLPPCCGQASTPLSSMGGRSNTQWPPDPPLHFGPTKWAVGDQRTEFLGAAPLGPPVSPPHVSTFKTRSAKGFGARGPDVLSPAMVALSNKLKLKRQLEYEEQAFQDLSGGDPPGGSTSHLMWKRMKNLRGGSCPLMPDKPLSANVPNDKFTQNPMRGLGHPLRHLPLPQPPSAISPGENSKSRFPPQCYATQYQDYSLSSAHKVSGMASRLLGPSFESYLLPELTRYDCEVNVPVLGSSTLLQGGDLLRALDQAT

| Structure (SMILES) | IC50 ([1]; Table 1, 20 hours incubation) [nM] | IC50 ([2]; Table 1) [nM] | other results |
| --- | --- | --- | --- |
| OCc1cc(N2CCCc3cc(F)cc(F)c32)ccc1C(F)(F)F [Example 63] | > 1000 | > 1000 | – |
| CS(=O)(=O)c1ccc([C@H]2CCCc3cc(F)cc(C#N)c32)c2c1[C@H](O)[C@@H](F)CC2 [Example 94] | 100 to 1000 | 100 to 1000 | – |
| CC[C@@H]1CCN(c2ccc(S(=O)(=O)C(F)(F)F)c3c2C[C@@H](F)[C@H]3O)c2c(F)cc(F)cc21 [Example 45] | > 1000 | 100 to 1000 | – |
| O=S(=O)(c1ccc([C@H]2CCCc3cc(F)cc(F)c32)c2c1[C@H](O)[C@H](F)C2)C(F)(F)F [Example 2a, (1S,2R)-4-[R-6,8-difluoro-1,2,3,4-tetrahydronaphth-1-yl]-2-fluoro-7-(trifluoromethylsulfonyl)-1-indanol] | < 100 | < 100 | – |
| Cc1cnn(C)c1-c1ccc([C@H]2CC[C@H](F)c3cc(F)cc(C#N)c32)c2c1[C@H](O)[C@H](F)C2 [Example 152] | – | – | IC50 ([1]; Table 3, 20 hours incubation): < 100 nM; IC50 ([2]; Table 3): < 100 nM |
| O=S(=O)(c1ccc(N2CCCc3cc(F)cc(F)c32)c2cccnc12)C(F)(F)F [Example 21, 6,8-difluoro-8′-trifluoromethanesulfonyl-3,4-dihydro-2H-1,5′-biquinoline] | > 1000 | > 1000 | – |
| CS(=O)(=O)c1ccc(N2CCCc3cc(F)cc(C#N)c32)c2c1[C@H](O)[C@H](F)C2 [Example 41] | > 1000 | 100 to 1000 | – |
| O=S(=O)(c1ccc(N2CCCc3cc(F)cc(F)c32)c2c1C(O)C(F)(F)C2)C(F)(F)F (stereo not shown) [Example 38] | 100 to 1000 | 100 to 1000 | – |
| O=S(=O)(c1ccc(N2C[C@@H](O)Cc3cc(F)cc(F)c32)c2c1[C@H](O)[C@H](F)C2)C(F)(F)F [Example 66] | > 1000 | > 1000 | – |
| O=[N+]([O-])c1cc(S(=O)(=O)C(F)(F)F)ccc1N1CCCc2c(F)cc(F)cc21 [Example 64] | > 1000 | > 1000 | – |
| O=S(=O)(c1ccc([C@@H]2CCCc3cc(F)cc(F)c32)c2c1[C@H](O)[C@H](F)C2)C(F)(F)F [Example 2b, (1S,2R)-4-[S-6,8-difluoro-1,2,3,4-tetrahydronaphth-1-yl]-2-fluoro-7-(trifluoromethylsulfonyl)-1-indanol] | 100 to 1000 | 100 to 1000 | – |
| Cc1ncccc1-c1ccc([C@H]2CC[C@H](F)c3cc(F)cc(C#N)c32)c2c1[C@H](O)C(F)(F)C2 [Example 159, (5S,8R)-8-[(1S)-2,2-difluoro-1-hydroxy-7-(2-methylpyridin-3-yl)-1,3-dihydroinden-4-yl]-3,5-difluoro-5,6,7,8-tetrahydronaphthalene-1-carbonitrile] | – | – | IC50 ([1]; Table 3, 20 hours incubation): < 100 nM; IC50 ([2]; Table 3): < 100 nM |
| N#Cc1cc(F)cc2c1[C@H](c1ccc(S(=O)(=O)C(F)(F)F)c3c1CC[C@H]3O)CCC2 [Example 100] | 100 to 1000 | 100 to 1000 | – |
| CC1(O)c2c(S(C)(=O)=O)ccc([C@H]3CCCc4cc(F)cc(F)c43)c2CC1(F)F (stereo partly shown) [Example 113] | > 1000 | > 1000 | – |
| CS(=O)(=O)c1ccc([C@@H]2CCCc3cnccc32)c2c1[C@H](O)C(F)(F)C2 [Example 106] | > 1000 | > 1000 | – |
| Cc1cn[nH]c1-c1ccc([C@H]2CC[C@H](F)c3cc(F)cc(C#N)c32)c2c1[C@H](O)C(F)(F)C2 [Example 154, (5S,8R)-8-[(1S)-2,2-difluoro-1-hydroxy-7-(4-methyl-1H-pyrazol-5-yl)-1,3-dihydroinden-4-yl]-3,5-difluoro-5,6,7,8-tetrahydronaphthalene-1-carbonitrile] | – | – | IC50 ([1]; Table 3, 20 hours incubation): < 100 nM; IC50 ([2]; Table 3): < 100 nM |
| N#Cc1cc(F)cc2c1[C@@H](c1ccc(C(F)(F)F)c3c1C(=O)OC3)CC[C@@H]2F [Example 142, (5S,8R)-3,5-Difluoro-8-[3-oxo-7-(trifluoromethyl)-1,3-dihydro-2-benzofuran-4-yl]-5,6,7,8-tetrahydronaphthalene-1-carbonitrile] | – | – | IC50 ([1]; Table 2, 20 hours incubation): < 100 nM; IC50 ([2]; Table 2): < 100 nM |
| CS(=O)(=O)c1ccc(N2CCCc3cc(F)cc(C#N)c32)c2c1[C@H](O)C(F)(F)C2 (racemic) [Example 31] | 100 to 1000 | 100 to 1000 | – |
| Cn1nncc1-c1ccc([C@H]2CC[C@H](F)c3cc(F)cc(C#N)c32)c2c1[C@H](O)C(F)(F)C2 [Example 147, (5S,8R)-8-[(1S)-2,2-difluoro-1-hydroxy-7-(3-methyltriazol-4-yl)-1,3-dihydroinden-4-yl]-3,5-difluoro-5,6,7,8-tetrahydronaphthalene-1-carbonitrile] | – | – | IC50 ([1]; Table 3, 20 hours incubation): < 100 nM; IC50 ([2]; Table 3): < 100 nM |
| N#Cc1cc(F)cc2c1N(c1ccc(C(F)(F)F)c(Cl)c1C#N)CCC2 [Example 29] | 100 to 1000 | 100 to 1000 | – |
| N#Cc1cc(F)cc2c1[C@@H](c1ccc(S(=O)(=O)C(F)(F)F)c3c1C[C@@H](F)[C@H]3O)CCC2 [Example 5, (8R)-3-fluoro-8-((1S,2R)-2-fluoro-1-hydroxy-7-((trifluoromethyl)sulfonyl)-2,3-dihydro-1H-inden-4-yl)-5,6,7,8-tetrahydronaphthalene-1-carbonitrile] | < 100 | < 100 | – |

| Structure (SMILES) | IC50 ([1]; Table 1, 20 hours incubation) [nM] | IC50 ([2]; Table 1) [nM] | other results |
| --- | --- | --- | --- |
| N#Cc1cc(F)cc2c1N(c1cnc(C(F)(F)F)c(F)c1Cl)CCC2 [Example 26] | 100 to 1000 | 100 to 1000 | – |
| O=[N+]([O-])c1cc(C(O)(C(F)(F)F)C(F)(F)F)ccc1N1CCCc2cc(F)cc(F)c21 [Example 70] | > 1000 | > 1000 | – |
| Cn1nccc1-c1ccc([C@H]2CC[C@H](F)c3cc(F)cc(C#N)c32)c2c1[C@H](O)[C@H](F)C2 [Example 157, (5S,8R)-3,5-difluoro-8-[(1S,2R)-2-fluoro-1-hydroxy-7-(2-methylpyrazol-3-yl)-2,3-dihydro-1H-inden-4-yl]-5,6,7,8-tetrahydronaphthalene-1-carbonitrile] | – | – | IC50 ([1]; Table 3, 20 hours incubation): < 100 nM; IC50 ([2]; Table 3): < 100 nM |
| CS(=O)(=O)c1ccc(N2CCCc3cc(F)cc(Cl)c32)c2c1[C@H](O)[C@H](F)C2 [Example 47] | > 1000 | 100 to 1000 | – |
| CC1(O)CCN(c2ccc(C(F)(F)F)c(F)c2C#N)c2c(C#N)cc(F)cc21 (stereo not shown) [Example 120] | 100 to 1000 | 100 to 1000 | – |
| O=S(=O)(c1ccc(N2CCCc3cc(F)cc(F)c32)c2c1C(O)CC2)C(F)(F)F (stereo not shown) [Example 78] | > 1000 | > 1000 | – |
| N#Cc1cc(F)cc2c1N(c1ccc(C(F)(F)F)c(F)c1C#N)CCC2 [Example 118] | 100 to 1000 | 100 to 1000 | – |
| N#Cc1cc(F)cc2c1[C@H](c1ccc(S(=O)(=O)C(F)(F)F)c3c1C[C@@H](F)[C@H]3O)CCC2 [Example 6, (S)-3-fluoro-8-((1S,2R)-2-fluoro-1-hydroxy-7-((trifluoromethyl)sulfonyl)-2,3-dihydro-1H-inden-4-yl)-5,6,7,8-tetrahydronaphthalene-1-carbonitrile] | > 1000 | > 1000 | – |
| N#Cc1cc(F)cc2c1[C@@H](c1ccc(C(F)(F)F)c3c1OC(F)(F)[C@H]3O)CCC2 [Example 91] | < 100 | < 100 | – |
| O=Cc1c(S(=O)(=O)C(F)(F)F)ccc(N2CCCc3cc(F)cc(F)c32)c1Cl [Example 68] | > 1000 | > 1000 | – |
| CC1(C)CC[C@H](c2ccc(S(=O)(=O)C(F)(F)F)c3c2C[C@@H](F)[C@H]3O)c2c(C#N)cc(F)cc21 [Example 114] | < 100 | < 100 | – |
| CS(=O)(=O)c1ccc([C@H]2CCCc3cc(F)cc(C#N)c32)c2c1[C@H](O)[C@H](F)CC2 [Example 98] | 100 to 1000 | 100 to 1000 | – |
| CC(C)(O)c1cc(N2CCCc3cc(F)cc(F)c32)ccc1S(C)(=O)=O [Example 55] | > 1000 | > 1000 | – |
| Cc1c(N2CCC(F)(F)c3cc(F)cc(C#N)c32)cnc(C(F)(F)F)c1C#N [Example 128, 1-[5-cyano-4-methyl-6-(trifluoromethyl)pyridin-3-yl]-4,4,6-trifluoro-2,3-dihydroquinoline-8-carbonitrile] | – | – | IC50 ([1]; Table 2, 20 hours incubation): < 100 nM; IC50 ([2]; Table 2): < 100 nM |
| O=Cc1c(S(=O)(=O)C(F)(F)F)ccc(N2CCCc3cc(F)cc(F)c32)c1Cl [Example 69] | > 1000 | 100 to 1000 | – |
| CS(=O)(=O)c1ccc(C2CCCc3cc(F)cc(F)c32)c(Cl)c1C#N (stereo not shown) [Example 1, 2-chloro-3-(6,8-difluoro-1,2,3,4-tetrahydronaphthalen-1-yl)-6-methanesulfonylbenzonitrile] | > 1000 | 100 to 1000 | – |
| O=S1(=O)c2ccc(N3CCCc4cc(F)cc(F)c43)c(Cl)c2C(O)C1(F)F (stereo not shown) [Example 52] | > 1000 | 100 to 1000 | – |
| COC1CCN(c2ccc(C(C)(F)F)c(F)c2C#N)c2c(C#N)cc(F)cc21 (stereo not shown) [Example 132, 1-[2-Cyano-4-(1,1-difluoroethyl)-3-fluorophenyl]-6-fluoro-4-methoxy-3,4-dihydro-2H-quinoline-8-carbonitrile] | – | – | IC50 ([1]; Table 2, 20 hours incubation): < 100 nM; IC50 ([2]; Table 2): < 100 nM |
| CS(=O)(=O)c1ccc(C2CCCc3cc(F)cc(C#N)c32)c2c1[C@H](O)[C@H](F)C2 (stereo in doubt) [Example 7, (8S)-3-fluoro-8-((1S,2R)-2-fluoro-1-hydroxy-7-(methylsulfonyl)-2,3-dihydro-1H-inden-4-yl)-5,6,7,8-tetrahydronaphthalene-1-carbonitrile] | < 100 | < 100 | – |
| N#Cc1cc(F)cc2c1N(c1ccc(C(F)(F)F)c(F)c1C(O)C(F)(F)F)CCC2 (stereo not shown) [Example 61] | > 1000 | > 1000 | – |
